These results are taken from patent US4257941A, “Polycyclic nitrogen-containing compounds” (BASF Aktiengesellschaft, priority 1976, dated 1981).

One assay has as its system Hordeum vulgare. Nature of the assay: Growth height of Gramineae (Example 11, Table B). The note with it: 3.0 kg/ha, 0 = no inhibition, 100 = no growth; for inhibition at 3000 g/ha: Hordeum vulgare, read-out: growth inhibition compared with untreated control. Format: in vivo. The text has this: (§1) The vessels used for the experiments were plastic pots having a volume of 1,130 cm^3 (Table A) or paraffined paper cups having a volume of 170 cm^3 (Table B). The pots and cups were filled with a sandy loam. The seeds of the test plants-separated by species-were sown shallow. Preemergence treatment (soil treatment) was effected immediately after sowing and before germination of the seeds. Seeds lying on the surface came into contact with the active ingredients. Postemergence treatment (leaf treatment) took place at an average growth height of the plants (depending on the rate of growth) of from 6 to 10 cm. The substances were suspended, emulsified or dissolved in water as diluent and applied by means of fine nozzles. The vessels were kept in the greenhouse in a temperature range of 12° C. to 25° C., and were regularly sprinkler irrigated for the duration of the experiment. The observation period was 6 to 8 weeks.

The next assay relates to Lolium multifl. Briefly: Growth height of Gramineae (Example 11, Table B). The assay is classed as in vivo. The note with it: 3.0 kg/ha, 0 = no inhibition, 100 = no growth; for inhibition at 3000 g/ha: Lolium, read-out: growth inhibition compared with untreated control.
Description: as §1

In the next assay the test system is Avena sativa. Briefly: Growth height of Gramineae (Example 11, Table B). The assay is classed as in vivo. The following applies: 3.0 kg/ha, 0 = no inhibition, 100 = no growth; for inhibition at 3000 g/ha: Avena sativa, read-out: growth inhibition compared with untreated control.
Description: as §1

The next assay concerns sugar beet. Nature of the assay: Sugar content of sugar beet in the open (Example 21). Format: in vivo, Beta vulgaris sap. altissima (Kleinwanzleben KAWPoly). The note with it: 2.0 kg/ha; for Sugar content in freshly lifted beet, absolute: control 12.6 a; for Sugar content in freshly lifted beet, relative increase: control 100. The text has this: The crop plant was Beta vulgaris sap. altissima, variety "Kleinwanzleben KAWPoly". The soil was a sandy loam (1.5% organic substance, pH 5.7). Mineral fertilization totalled 400 kg N, 100 kg P2 O5, and 100 kg K2 O per hectare. For chemical weed control, 2.5 kg/ha of 1-phenyl-4-amino-5-chloropyridazone-(6) was applied before emergence of the beet plants. Aphids were controlled with dimethoate (O,O-dimethyl-S-(N-methylcarbonylmethyl)-phosphorus dithioate). Sowing took place on Mar. 10, 1975. The beets were lifted comparatively early on Sept. 29, 1975. The active ingredient was applied with the aid of spraying equipment with fine nozzles, mounted on a tractor. The amount of water used for dispersion purposes was 780 liters/ha. Treatment was effected on 2 different dates and on different plots:
I--the beet had 5 to 7 true leaves;
II--five weeks before harvesting, on the well developed plants. The sugar content was determined from fresh beets immediately after lifting.

For another assay, the system named is Cynodon dactylon. Briefly: Herbicidal action (Example 25). Format: in vivo. The note with it: preemergence. A digest of the protocol: (§2)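 Plants of each species grew in sandy loam in the greenhouse at 12–25 or 18–35 °C. Compounds in water were sprayed either preemergence right after sowing or postemergence at 2–8 cm plant height. Damage was scored visually after 2–6 weeks on a 0–100 scale, where 100 means not germinated or fully destroyed.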

In a further assay the test system is Cyperus esculentus. Briefly: Herbicidal action (Example 25). The note with it: preemergence. Format: in vivo. In short, it runs like this: as §2
Another assay has as its system Ipomoea spp. Nature of the assay: Herbicidal action (Example 25). Format: in vivo. The note with it: preemergence. In short, it runs like this: as §2
The subject of the next assay is Alopecurus myosuroides. Nature of the assay: Herbicidal action (Example 25). Format: in vivo. The note with it: Alopecurus myosuroides, pre-emergence, read-out: percentage damage. In short, it runs like this:
as §2

The subject of a further assay is Digitaria sanguinalis. Briefly: Herbicidal action (Example 25). Format: in vivo. The note with it: preemergence. In short, it runs like this: as §2
Another assay has as its system Euphorbia spp. Briefly: Herbicidal action (Example 25). The following applies: preemergence. Format: in vivo. A digest of the protocol:
as §2

In another assay the test system is Sorghum halepense. Briefly: Herbicidal action (Example 25). Format: in vivo. The note with it: preemergence. A digest of the protocol: as §2
The test system of a further assay is Poa annua. Briefly: Herbicidal action (Example 25). Format: in vivo. The note with it: Poa annua, pre-emergence, preemergence, 2.0 kg/ha; read-out: percentage damage. In short, it runs like this: as §2
Another assay has as its system Setaria faberii. Briefly: Herbicidal action (Example 25). Format: in vivo. The following applies: preemergence. In short, it runs like this:
as §2

The next assay deals with Sinapis alba. Briefly: Herbicidal action (Example 25). The assay is classed as in vivo. The note with it: pre-emergence, preemergence, 2.0 kg/ha, read-out: percentage damage. A digest of the protocol:
as §2

In the next assay the test system is Stellaria media. Nature of the assay: Herbicidal action (Example 25). The following applies: preemergence, 2.0 kg/ha. Format: in vivo. A digest of the protocol: as §2

Read-outs that look alike come from different tables or passages of the source.

As to `Clc1ccc(N2N=NC3C4CC(C5N=NC45)C32)cc1Cl` (stereo not drawn), the “growth inhibition compared with untreated control” value with Hordeum vulgare (leaf treatment) was found to be 30%; with Hordeum vulgare (soil treatment) it was 40%; with Lolium multifl. (leaf treatment), 25%; in the assay on Lolium multifl. (soil treatment) it was 30%; in the assay with Avena sativa (leaf treatment), 40%; in the assay on Avena sativa (soil treatment), 30%.

With `c1ccc(-n2nccc2N2N=NC3C4CC(C5N=NC45)C32)cc1` (stereo not drawn), the “growth inhibition compared with untreated control” value in the assay with Hordeum vulgare (leaf treatment) is 20%; in the assay with Hordeum vulgare (soil treatment), 35%; in the assay with Lolium multifl. (leaf treatment) it was 0%; in the assay on Avena sativa (leaf treatment), 20%; in the assay on Avena sativa (soil treatment), 60%.

As usually defined, the inhibition is the percentage by which the read-out fell short of the control. On to `Brc1ccc(N2N=NC3C4CC(C5NNC45)C32)cc1` (stereo not drawn), for which the inhibition at 3000 g/ha was found to be 50% in the assay with Hordeum vulgare (leaf treatment); 60% in the assay on Hordeum vulgare (soil treatment); 50% in the assay with Lolium multifl. (leaf treatment); 50% in the assay on Lolium multifl. (soil treatment); 60% in the assay on Avena sativa (leaf treatment); 60% in the assay on Avena sativa (soil treatment).

As to `Brc1ccc(N2C3C4CC(C5N=NC45)C32)cc1` (stereo not drawn), the inhibition at 3000 g/ha is 50% with Hordeum vulgare (leaf treatment); 60% with Hordeum vulgare (soil treatment); 50% with Lolium multifl. (leaf treatment); 50% in the assay with Lolium multifl. (soil treatment); 50% in the assay on Avena sativa (leaf treatment); 40% in the assay on Avena sativa (soil treatment).

For `C[N+](C)(C)CCCl` [drawing 370], the inhibition at 3000 g/ha with Hordeum vulgare (leaf treatment) was 10%; in the assay on Hordeum vulgare (soil treatment) it was 10%; in the assay with Lolium multifl. (leaf treatment), 20%; with Lolium multifl. (soil treatment) it was 5%; in the assay with Avena sativa (leaf treatment) it was 45%; in the assay with Avena sativa (soil treatment), 25%.

Consider `Brc1ccc(N2N=NC3C4CC(C5N=NC45)C32)cc1` (stereo not drawn) [drawing 401], for which the “Sugar content in freshly lifted beet, absolute” value in the assay with sugar beet (date I (20.05.75), letter = Duncan group) is 14.35%; in the assay on sugar beet (date II (21.08.75), letters = Duncan group), 13.85%. The “Sugar content in freshly lifted beet, relative increase” value with sugar beet (date I) was 113; in the assay on sugar beet (date II), 110.

In the case of `c1ccc(N2N=NC3C4CC(C5N=NC45)C32)cc1` (stereo not drawn) [drawing 410], the percentage damage in the assay with Cynodon dactylon (2.0 kg/ha) stood at 70 percentage damage; in the assay with Cynodon dactylon (4.0 kg/ha), 90 percentage damage; in the assay on Cyperus esculentus (2.0 kg/ha), 27 percentage damage; in the assay on Cyperus esculentus (4.0 kg/ha), 55 percentage damage; in the assay on Ipomoea spp. (2.0 kg/ha) it was 50 percentage damage; with Ipomoea spp. (4.0 kg/ha) it was 60 percentage damage. The molecule also displayed a percentage damage in the assay on Digitaria sanguinalis (2.0 kg/ha) of 100 percentage damage. The pest or weed control at 4000 g/ha with Alopecurus myosuroides (preemergence, 4.0 kg/ha) worked out at 85%.

As to `c1ccc(N2C3C4CC(C5N=NC45)C32)cc1` (stereo not drawn) [drawing 411], the percentage damage in the assay on Euphorbia spp. (2.0 kg/ha) worked out at 90 percentage damage; in the assay with Euphorbia spp. (4.0 kg/ha), 100 percentage damage; with Cynodon dactylon (2.0 kg/ha), 65 percentage damage; in the assay with Cynodon dactylon (4.0 kg/ha) it was 90 percentage damage; in the assay on Cyperus esculentus (2.0 kg/ha), 45 percentage damage; in the assay on Cyperus esculentus (4.0 kg/ha) it was 60 percentage damage. Further, the percentage damage with Ipomoea spp. (4.0 kg/ha) was determined as 29 percentage damage; with Digitaria sanguinalis (2.0 kg/ha) it was 70 percentage damage; in the assay on Digitaria sanguinalis (4.0 kg/ha) it was 100 percentage damage. Further, the pest or weed control at 2000 g/ha with Alopecurus myosuroides is 70%. Further, the pest or weed control at 4000 g/ha with Alopecurus myosuroides was determined as 83%.

As for `c1ccc(CN2N=NC3C4CC(C5N=NC45)C32)cc1` (stereo not drawn) [drawing 412], the percentage damage in the assay on Cynodon dactylon (2.0 kg/ha) was 80 percentage damage; with Cynodon dactylon (4.0 kg/ha) it was 100 percentage damage; with Cyperus esculentus (2.0 kg/ha), 55 percentage damage; in the assay with Cyperus esculentus (4.0 kg/ha) it was 55 percentage damage; in the assay with Ipomoea spp. (2.0 kg/ha) it was 0 percentage damage; in the assay with Ipomoea spp. (4.0 kg/ha) it was 10 percentage damage. For the same molecule, in the assay on Alopecurus myosuroides (preemergence, 2.0 kg/ha), the pest or weed control at 2000 g/ha amounted to 55%. Besides, the pest or weed control at 4000 g/ha in the assay on Alopecurus myosuroides (preemergence, 4.0 kg/ha) was 70%.

Turning to `Cc1ccc(N2N=NC3C4CC(C5N=NC45)C32)cc1` (stereo not drawn) [drawing 413], the percentage damage is 90 percentage damage with Euphorbia spp. (2.0 kg/ha); 100 percentage damage in the assay on Euphorbia spp. (4.0 kg/ha); 83 percentage damage in the assay with Cynodon dactylon (2.0 kg/ha); 100 percentage damage with Cynodon dactylon (4.0 kg/ha); 0 percentage damage with Cyperus esculentus (2.0 kg/ha); 0 percentage damage with Cyperus esculentus (4.0 kg/ha). Further, the percentage damage was determined as 78 percentage damage in the assay on Ipomoea spp. (2.0 kg/ha), 75 percentage damage in the assay with Ipomoea spp. (4.0 kg/ha), 100 percentage damage with Digitaria sanguinalis (2.0 kg/ha) and 100 percentage damage in the assay with Digitaria sanguinalis (4.0 kg/ha). The pest or weed control at 2000 g/ha with Alopecurus myosuroides (preemergence, 2.0 kg/ha) stood at 40%. In addition, in the assay on Alopecurus myosuroides (preemergence, 4.0 kg/ha), the pest or weed control at 4000 g/ha came to 40%.

With `O=S(=O)(c1ccccc1)N1C2C3CC(C4N=NC34)C21` (stereo not drawn) [drawing 414], the percentage damage with Euphorbia spp. (2.0 kg/ha) is on record as 65 percentage damage; in the assay with Euphorbia spp. (4.0 kg/ha), 90 percentage damage; with Cynodon dactylon (2.0 kg/ha), 90 percentage damage; with Cynodon dactylon (4.0 kg/ha), 100 percentage damage; with Cyperus esculentus (2.0 kg/ha), 0 percentage damage; with Cyperus esculentus (4.0 kg/ha), 0 percentage damage. The percentage damage was determined as 78 percentage damage in the assay with Ipomoea spp. (2.0 kg/ha), 68 percentage damage in the assay on Digitaria sanguinalis (2.0 kg/ha) and 90 percentage damage in the assay on Digitaria sanguinalis (4.0 kg/ha). Further, the pest or weed control at 2000 g/ha in the assay with Alopecurus myosuroides (preemergence, 2.0 kg/ha) is 80%. In addition, the pest or weed control at 4000 g/ha in the assay on Alopecurus myosuroides (preemergence, 4.0 kg/ha) worked out at 80%.

Take `Cc1ccc(N2N=NC3C4CC(C5N=NC45)C32)cc1` (stereo not drawn) [drawing 418]: the percentage damage in the assay with Sorghum halepense (2.0 kg/ha) was determined as 55 percentage damage; in the assay with Sorghum halepense (4.0 kg/ha), 55 percentage damage; in the assay with Setaria faberii (2.0 kg/ha), 55 percentage damage; in the assay with Setaria faberii (4.0 kg/ha) it was 100 percentage damage; in the assay on Stellaria media, 13 percentage damage. Besides, the values for the pest or weed control at 2000 g/ha in the assay with Poa annua and in the assay with Sinapis alba were 65% and 98%, respectively.

For the molecule `O=S(=O)(c1ccccc1)N1C2C3CC(C4N=NC34)C21` (stereo not drawn) [drawing 419], the percentage damage in the assay with Sorghum halepense (2.0 kg/ha) is 53 percentage damage; in the assay with Sorghum halepense (4.0 kg/ha), 50 percentage damage; in the assay with Setaria faberii (2.0 kg/ha), 40 percentage damage; with Setaria faberii (4.0 kg/ha), 100 percentage damage. For the same molecule, the pest or weed control at 2000 g/ha worked out at 70% in the assay with Poa annua and 90% in the assay on Sinapis alba.
